{
  "source": "patent US20110288011A1",
  "about": "“PEPTIDE THERAPEUTIC CONJUGATES AND USES THEREOF” (priority 2008, published 2011)",
  "key": {"[1]": {"target": "NTSR1 (Homo sapiens, UniProt P30989)", "sequence (P30989 whole entry)": "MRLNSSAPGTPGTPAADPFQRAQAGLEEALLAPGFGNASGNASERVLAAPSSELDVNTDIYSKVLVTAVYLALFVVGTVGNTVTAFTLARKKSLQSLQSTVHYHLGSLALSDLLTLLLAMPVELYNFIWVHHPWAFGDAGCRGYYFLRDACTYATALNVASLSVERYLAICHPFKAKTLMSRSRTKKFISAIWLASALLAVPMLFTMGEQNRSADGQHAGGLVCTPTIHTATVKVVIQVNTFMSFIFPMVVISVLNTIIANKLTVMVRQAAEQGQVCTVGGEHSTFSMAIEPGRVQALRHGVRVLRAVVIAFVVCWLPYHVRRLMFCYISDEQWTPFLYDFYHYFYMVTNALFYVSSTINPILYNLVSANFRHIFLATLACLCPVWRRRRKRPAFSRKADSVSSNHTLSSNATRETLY", "assay": "biochemical"}, "[2]": {"tested_on": "mice", "assay": "Body temperature (hypothermia induction) in mice", "assay_type": "in vivo", "conditions": "for Δ Max temp: mouse, in vivo", "quoted_text": "We also tested whether higher doses of the conjugate would results in greater induction of hypothermia.\nAt this time, the infusion was increased to 40 mg/kg/hr."}, "[3]": {"tested_on": "rats", "assay": "Body temperature (sustained hypothermia) in rats", "assay_type": "in vivo", "description": "A similar experiment was performed in rats.\nA similar experiment was conducted in rats.\nA further experiment, conducted over a 12-hour period, was also performed in rats."}, "[4]": {"tested_on": "mice brains", "assay": "In situ brain perfusion of iodinated NT and NT-An2", "assay_type": "in vivo", "description": "Following iodination, mice brains were perfused in the carotid artery with either [^125I]-NT or the [^125I]-NT-An2 derivative in Krebs buffer for the indicated times. After the indicated times, brains were further perfused for 30 sec to washout the excess of both compound. Both [^125I]-NT or [^125I]-NT-An2 derivative in brain were quantified using a […]. Results are expressed in terms of brain volume of distribution (ml/100 g) as a function of time.\nBrain capillary depletion was performed using Dextran following standard procedures. Both [^125I]-NT or [^125I]-NT-An2 derivative present in brain, capillaries, and parenchyma were quantified and volume of distribution (ml/100 g/2 min) is reported.\nTo confirm that the NT-An2 conjugate crosses the BBB, both NT and the conjugate were iodinated using standard procedures, and in situ brain perfusion was performed using methods standard in the art. The initial transport was measured as a function of time (FIG. 42). […] Higher levels of NT-An2 were found in the brain parenchyma when compared to NT."}, "[5]": {"tested_on": "mice", "assay": "Hot plate test (analgesia) in mice", "conditions": "15 minutes following injection, NT-An2 20 mg/kg, buprenorphine 1 mg/kg"}, "[6]": {"tested_on": "ob/ob mice", "assay": "Treatment of obese (ob/ob) mice with Exen-An2: body weight, food intake, glycemia", "assay_type": "in vivo, mouse", "conditions": "higher doses (exendin-4 30 μg/kg, Exen-An2 48 μg/kg), vs control", "description": "The body weight of each mouse was measured daily. Food intake was estimated based on the mean values for each group, and glycemia was measured one hour following treatment."}, "[7]": {"tested_on": "DIO mice", "assay": "Glycemia in DIO mice after bolus injection", "assay_type": "in vivo, mouse", "conditions": "vs control", "description": "We also tested the ability of the exendin-4-Angiopep-2 dimer conjugate to reduce glycemia in DIO mice. Mice were injected with a bolus containing a control, exendin-4, or the exendin-4-Angiopep-2 dimer conjugate."}, "[8]": {"tested_on": "mouse brain", "conditions": "in vivo", "quoted_text": "To measure brain uptake of the exendin-4/Angiopep-2 conjugates, we used an in situ perfusion assay. […] Briefly, the right common carotid artery of mice anesthetized with ketamine/xylazine (140/8 mg/kg i.p.) was exposed and ligated at the level of the bifurcation of the common carotid, rostral to the occipital artery. The common carotid was then catheterized rostrally with polyethylene tubing filled with heparin (25 U/ml) and mounted on a 26-gauge needle. […] Prior to the perfusion, the contralateral blood flow contribution was eliminated by severing the heart ventricles. […] Mice were then decapitated to terminate perfusion and the right hemisphere was isolated on ice before being subjected to capillary depletion. Aliquots of homogenates, supernatants, pellets, and perfusates were taken to measure their contents and to evaluate the apparent volume of distribution."}, "[9]": {"tested_on": "blood-brain barrier", "conditions": "mouse, in vivo"}},
  "note": "“Also recorded” adds a separate entry of the source. Square brackets hold non-standard residues; d marks the D form. Ends that are not written are not given here. Peptide text beside a SMILES is read from it. pGlu = O=C1CC[C@@H](C(=O)O)N1",
  "data": [
    {"compound": "CC[C@H](C)[C@H](NC(=O)[C@@H](Cc1ccc(O)cc1)NC(=O)[C@@H]1CCCN1C(=O)[C@H](CCCNC(=N)N)NC(=O)[C@H](CCCNC(=N)N)NC(=O)[C@H](CCCCN)NC(C)=O)C(=O)N[C@@H](CC(C)C)C(=O)O", "note": "[AcLysNT(8-13)D-tyr11, Ac-KRRPD-YIL-OH] (Ac-KRRP[dY]IL-OH)", "values": [
      {"measurement": "IC50", "setting": "[1]", "result": 5.39, "unit": "µM"}
    ]},
    {"compound": "CC[C@H](C)[C@H](NC(=O)[C@H](Cc1ccc(O)cc1)NC(=O)[C@@H]1CCCN1C(=O)[C@H](CCCNC(=N)N)NC(=O)[C@H](CCCNC(=N)N)NC(=O)[C@H](CCCCN)NC(=O)[C@@H]1CCC(=O)N1)C(=O)N[C@@H](CC(C)C)C(=O)O", "note": "[pGlu-Lys-NT(8-13)] ([pGlu]KRRPYIL-OH; C-terminus assumed)", "values": [
      {"measurement": "IC50", "setting": "[1]", "result": 0.0013, "unit": "µM"}
    ]},
    {"compound": "NT-An2: Neurotensin Angiopep-2-Cys amide conjugate via EMCS/MHA linker; different production batches", "values": [
      {"measurement": "reduction in body temperature", "setting": "[2]; mice, 5, 15, or 20 mg/kg, monitored for 120 minutes", "result": "Small differences between these higher doses"},
      {"measurement": "body temperature", "setting": "[2]; mice, i.v. bolus 20 mg/kg then 20 mg/kg/hr for 2.5 hours, then 40 mg/kg/hr, 360 minute time course", "result": "reduction in body temperature"},
      {"measurement": "effect on body temperature", "setting": "[2]; mice, i.v. bolus, monitored 120 minutes, conjugates compared with control", "result": "greatest reduction in body temperature; also recorded: larger effect"},
      {"measurement": "body temperature", "setting": "[2]; mice, intravenous, NT 1 mg/kg or equivalent dose of conjugate (2.5 mg/kg)", "result": "rapid decrease in the body temperature"},
      {"measurement": "body temperature", "setting": "[2]; mice, intravenous, NT-An2 5 mg/kg", "result": "stronger decrease in body temperature"},
      {"measurement": "Δ Max temp", "setting": "[2]; listed as ANG-NT (prep #1)", "result": "−4 to −5", "unit": "°C"},
      {"measurement": "Δ Max temp", "setting": "[2]; listed as ANG-NT (prep #2)", "result": "−4 to −5", "unit": "°C"},
      {"measurement": "Δ Max temp", "setting": "[2]; listed as ANG-NT (prep #3)", "result": "−3 to −4", "unit": "°C"},
      {"measurement": "Δ Max temp", "setting": "[2]; listed as ANG-NT (prep #4)", "result": "−2 to −4", "unit": "°C"},
      {"measurement": "body temperature", "setting": "[3]; 40 mg/kg i.v. bolus followed by infusion, 12-hour period, 40 mg/kg", "result": "sustained reduction in body temperature; also recorded: prolonged reduction of body temperature"},
      {"measurement": "body temperature", "setting": "[3]; i.v. 20 mg/kg then 20 mg/kg/hr infusion, 360-minute time course", "result": "sustained reduction in body temperature"},
      {"measurement": "maximal temperature drop", "setting": "[3]; i.v. bolus 20 mg/kg then 20 mg/kg/hr for […], after 90 minutes", "result": "about 3.5 °C"},
      {"measurement": "trapping in the brain capillaries", "setting": "[4]; 2 min in situ perfusion, capillary depletion", "result": "not trapped in the brain capillaries"},
      {"measurement": "levels in the brain parenchyma", "setting": "[4]; 2 min in situ perfusion, capillary depletion, compared to NT", "result": "Higher levels"},
      {"measurement": "initial brain uptake", "setting": "[4]; in situ brain perfusion, as a function of time, iodinated compounds", "result": "higher than for the unconjugated NT"},
      {"measurement": "latency of foot licking behavior (hot plate)", "setting": "[5]", "result": "increased the latency of foot licking behavior in a statistically significant manner"}
    ]},
    {"compound": "exendin-4", "values": [
      {"measurement": "body weight gain", "setting": "[6]; after 10 days of daily treatment", "result": "lower than the control; also recorded: reduce weight gain"},
      {"measurement": "food intake", "setting": "[6]", "result": "reduced; also recorded: reduce food intake"},
      {"measurement": "glycemia", "setting": "[7]", "result": "reduced glycemia"},
      {"measurement": "brain distribution", "setting": "[8]", "result": 0.2, "unit": "ml/100 g/2 min"}
    ]},
    {"compound": "leptin(116-130) (SCHLPWASGLETLDS-NH2; UniProt P41159 116-130, looked up, fragment) [leptin116-130]", "values": [
      {"measurement": "transport across the BBB", "setting": "[9]", "result": "reduced as compared to in lean mice"}
    ]}
  ]
}
